Like-named read-outs stand apart in the source and are kept apart here.
Assays:
[1] = test system: ARE-driven luciferase activity in AREc32 cells; test: Induction of ARE-driven luciferase activity in stable AREc32 reporter cells; type: cell-based, human; conditions: for CD, concentration of inducting agent that doubled luciferase reporter activity: DMSO set at 1
Fas-induced killing = conditions: WO 01/57189; cited from earlier work
[2] = test system: AKR1C and NQO1 protein in MCF7 cells; test: AKR1C and NQO1 protein in MCF7 cells (Western blots); type: cell-based, human; conditions: 24 hrs; for sulforaphane-induced AKR1C protein: sulforaphane 5 μM + retinoid 0.5 μM
Experimental: Method: AREc32 cells were seeded out in 96 well plates and treated with DMSO (control), tBHQ (50 μM), tBHQ+BTB09463 (5 μM) or tBHQ+Retinoic acid (1 μM). After 24 hours incubation, cells were washed and lysed before measuring luciferase activity. BTB09463 is 1-{4-[(3,4-dichlorobenzyl)oxy]phenyl}ethan-1-one. […] Method: AREc32 cells were seeded out in 96 well plates and dosed with BTB09463 (2.5, 5 or 10 μM) for 0, 24 or 48 hrs before treatment with tBHQ (50 μM). 24 hours after the addition of tBHQ, cells were washed and lysed before measuring luciferase activity. […] Method: ARE c32 cells were seeded out in 96 well plates and treated with DMSO (control), tBHQ (50 μM), tBHQ+retinoid (0.25, 0.5 and 1 μM). After 24 hours incubation, cells were washed and lysed before measuring luciferase activity. […] See FIG. 16 Method: A. Caco-2 cells were treated with the known ARE-gene inducer sulforaphane (5 μM), either alone or concomitantly with BTB09463 (5 μM) or Retinoic acid (1 μM). After 24 hrs, cell lysates were prepared and Western blotting performed to measure the levels of AKR1C protein. B. MCF7 cells were treated with sulforaphane (5 μM), either alone or concomitantly with BTB09463 (5 μM). After 24 hrs, cell lysates were prepared and Western blots performed to detect the levels of AKR1C and NQO1; GAPDH was used as a loading control in MCF7 cells. […] Method: Caco-2 cells were treated with DMSO (control), BTB09463 (5 μM), sulforaphane (5 μM) or a combination of sulforaphane plus BTB09463. After 24 hrs treatment, cells were harvested and RNA isolated. cDNA for each sample was generated by reverse transcription and subsequently used in real time PCR analysis of gene transcription (TaqMan analysis) for the ARE-driven genes AKR1C1 and NQO1. Data was normalised to the internal control 18S RNA and the relative levels of AKR1C1 and NQO1 calculated using the comparative CT method. […] Method: MCF7 cells were treated with the known ARE-gene inducer sulforaphane (5 μM), either alone or with various retinoids (0.5 μM). After 24 hrs, cell lysates were prepared and Western blots were performed to detect the levels of AKR1C protein present. […] See FIG. 19 Method: ARE reporter cell line AREc23 was seeded into 96 well plates and treated with a previously determined non-toxic concentration of cytotoxic drug. After 24 hours incubation, cells were washed and lysed before measuring luciferase activity. […] See FIG. 20a Method: ARE reporter cell line AREc23 was seeded into 96 well plates and treated with DMSO (control), Carmustine (100 μM), Carmustine+BTB09463 (5 μM) or Carmustine+Retinoic acid (5 μM) After 24 hours incubation, cells were washed and lysed before measuring luciferase activity. […] After 24 hours incubation, cells were washed and lysed before measuring luciferase activity. B. Modified repeat of experiment A, with cells being pretreated with L-buthionine-(SR)-sulfoximine (BSO), an inhibitor of enzymes in the glutathione synthesis pathway. After 24 hours incubation, cells were washed and lysed before measuring luciferase activity. […] Method: Caco-2 cells were treated for 24 hrs with DMSO (control), Carmustine (100 μM), Carmustine+BTB09463 (5 μM). After 24 hrs, cell lysates were prepared and Western blots to detect the levels of AKR1C. […] Method: MCF7 cells were treated for 24 hrs with DMSO (control; Lane 1), Sulforaphane (5 μM) (Lane 2), Carmustine (100 μM) (Lane 3), Carmustine+BTB09463 (5 μM) (Lane 5). (Lane 4 represents experimental conditions irrelevant to the application). After 24 hrs, cell lysates were prepared and Western blots to detect the levels of Nrf2, NQO1 and AKR1C proteins.

MCF7 cells = test: cells; type: cell-based; conditions: for synergy with Bleomycin (cell killing, isobologram): 72 hrs
[3] = test system: AKR1C1, NQO1, GCLC, GCLM mRNA in A549 cells; test: Constitutive mRNA of ARE-driven genes in A549 cells (Taqman); type: cell-based, human; conditions: BTB09463 1, 5, 20, 40 μmol/l or retinoids 0.050, 0.20, 0.50, 2.0 μmol/l, 24 hrs
[4] = test system: ARE-driven luciferase activity in AREc32 cells; test: Antagonism of induced ARE-driven luciferase activity in AREc32 cells; type: cell-based, human; conditions: 5 mM NAC; BSO pre-treated cells; cisplatin, melphalan, chlorambucil, BCNU
[5] = test system: AKR1C mRNA in AREc32 cells; test: AKR1C mRNA in AREc32 cells (TaqMan); conditions: without BSO; 100 μM BCNU, 24 h
A549 cells = test: Cytotoxicity in A549 cells (ATP levels, 72 h); type: cell-based, human; conditions: Homo sapiens, single agent
[6] = test system: AKR1C protein in Caco-2 cells; test: AKR1C protein in Caco-2 cells (Western blotting); type: cell-based, human; conditions: Carmustine 100 μM, 24 hrs
Experimental: Method: AREc32 cells were seeded out in 96 well plates and treated with DMSO (control), tBHQ (50 μM), tBHQ+BTB09463 (5 μM) or tBHQ+Retinoic acid (1 μM). After 24 hours incubation, cells were washed and lysed before measuring luciferase activity. BTB09463 is 1-{4-[(3,4-dichlorobenzyl)oxy]phenyl}ethan-1-one. […] Method: AREc32 cells were seeded out in 96 well plates and dosed with BTB09463 (2.5, 5 or 10 μM) for 0, 24 or 48 hrs before treatment with tBHQ (50 μM). 24 hours after the addition of tBHQ, cells were washed and lysed before measuring luciferase activity. […] Method: ARE c32 cells were seeded out in 96 well plates and treated with DMSO (control), tBHQ (50 μM), tBHQ+retinoid (0.25, 0.5 and 1 μM). After 24 hours incubation, cells were washed and lysed before measuring luciferase activity. […] See FIG. 16 Method: A. Caco-2 cells were treated with the known ARE-gene inducer sulforaphane (5 μM), either alone or concomitantly with BTB09463 (5 μM) or Retinoic acid (1 μM). After 24 hrs, cell lysates were prepared and Western blotting performed to measure the levels of AKR1C protein. B. MCF7 cells were treated with sulforaphane (5 μM), either alone or concomitantly with BTB09463 (5 μM). After 24 hrs, cell lysates were prepared and Western blots performed to detect the levels of AKR1C and NQO1; GAPDH was used as a loading control in MCF7 cells. […] Method: Caco-2 cells were treated with DMSO (control), BTB09463 (5 μM), sulforaphane (5 μM) or a combination of sulforaphane plus BTB09463. After 24 hrs treatment, cells were harvested and RNA isolated. cDNA for each sample was generated by reverse transcription and subsequently used in real time PCR analysis of gene transcription (TaqMan analysis) for the ARE-driven genes AKR1C1 and NQO1. Data was normalised to the internal control 18S RNA and the relative levels of AKR1C1 and NQO1 calculated using the comparative CT method. […] Method: MCF7 cells were treated with the known ARE-gene inducer sulforaphane (5 μM), either alone or with various retinoids (0.5 μM). After 24 hrs, cell lysates were prepared and Western blots were performed to detect the levels of AKR1C protein present. […] See FIG. 19 Method: ARE reporter cell line AREc23 was seeded into 96 well plates and treated with a previously determined non-toxic concentration of cytotoxic drug. After 24 hours incubation, cells were washed and lysed before measuring luciferase activity. […] See FIG. 20a Method: ARE reporter cell line AREc23 was seeded into 96 well plates and treated with DMSO (control), Carmustine (100 μM), Carmustine+BTB09463 (5 μM) or Carmustine+Retinoic acid (5 μM) After 24 hours incubation, cells were washed and lysed before measuring luciferase activity. […] After 24 hours incubation, cells were washed and lysed before measuring luciferase activity. […]

[7] = AREc32, 24 h, grouping of drugs by effect on luciferase activity

## O=P1(N(CCCl)CCCl)NCCCO1 (centres unmarked) [Cyclophosphamide]
[1]
  Type of modulation: Inactive
  effect on luciferase activity in AREc32 cells (in words): did not have any effect

## O=c1oc2ccccc2c(O)c1Cc1c(O)c2ccccc2oc1=O [Dirumarol]
Fas-induced killing
  protection conferred by Nrf2 against Fas-induced killing: antagonise protection conferred by Nrf2 against Fas-induced killing

## S=C(S)N1CCCC1 [PDTC]
[1]; AREc32, 24 h
  CD, concentration of inducting agent that doubled luciferase reporter activity: 20 µM

## CC(=O)OC/C=C(C)/C=C/C=C(C)/C=C/C1=C(C)CCCC1(C)C [Retinyl acetate]
[2]
  sulforaphane-induced AKR1C protein: reduced the expression of sulforaphane-induced AKR1C
MCF7 cells
  synergy with Bleomycin (cell killing, isobologram): very potent, synergistic increase in cell killing
[3]
  constitutive expression of AKR1C1 mRNA: inhibited the constitutive expression of AKR1C1 in a concentration-dependent manner

## CC(=O)N[C@@H](CS)C(=O)O [NAC]
[4]
  repression of anticancer drug induction of luciferase activity: nearly completely repressed

## CCC(=O)OC/C=C(C)/C=C/C=C(C)/C=C/C1=C(C)CCCC1(C)C [vitamin A propionate]
[2]
  sulforaphane-induced AKR1C protein: reduced the expression of sulforaphane-induced AKR1C

## CCOc1ccc2ccc(=O)oc2c1 [7-ethoxycoumarin]
[1]; AREc32, 24 h
  CD, concentration of inducting agent that doubled luciferase reporter activity: 100 µM

## S=P(N1CC1)(N1CC1)N1CC1 [Thiotepa]
[1]; 24 h, sub-lethal doses, no BSO
  effect on luciferase activity in AREc32 cells (in words): no effect
[1]; [7]
  Type of modulation: Inactive

## CC1=C(/C=C/C(C)=C/C=C/C(C)=C/C=O)C(C)(C)CCC1 [all-trans retinal]
[2]
  sulforaphane-induced AKR1C protein: reduced the expression of sulforaphane-induced AKR1C
[3]
  constitutive expression of AKR1C1 mRNA: inhibited the constitutive expression of AKR1C1 in a concentration-dependent manner

## COc1cc([C@@H]2c3cc4c(cc3[C@@H](O[C@@H]3O[C@@H]5CO[C@@H](C)O[C@H]5[C@H](O)[C@H]3O)[C@H]3COC(=O)[C@H]23)OCO4)cc(OC)c1O [Etopside, etoposide]
[1]; 50 μM BSO 24 h before drug, data not shown
  effect of BSO pre-treatment on luciferase activity: did not change luciferase activity significantly
[1]; 24 h, sub-lethal doses, no BSO
  effect on luciferase activity in AREc32 cells (in words): modestly increased
[1]; AREc32, 24 h, concentration of each drug given in column Conc., mean ± S.D.
  Fold increase (luciferase activity relative to control value): 1.3 ± 0.07
[1]; [7]
  Type of modulation: Weak inducers

## COc1cc(C)c(/C=C/C(C)=C/C=C/C(C)=C/C(=O)O)c(C)c1C [Acitretin]
[2]
  sulforaphane-induced AKR1C protein: reduced the expression of sulforaphane-induced AKR1C
MCF7 cells
  synergy with Bleomycin (cell killing, isobologram): very potent, synergistic increase in cell killing

## CCOc1ccc2c(c1)C(C)=CC(C)(C)N2 [Ethoxyquin]
[1]; AREc32, 24 h
  CD, concentration of inducting agent that doubled luciferase reporter activity: 5 µM

## C=CC=O [Acrolein]
[1]; 10 μM acrolein
  increase in luciferase activity: 27 fold
[1]; AREc32, 24 h
  CD, concentration of inducting agent that doubled luciferase reporter activity: 2 µM
[1]; [7]
  Type of modulation: Strong inducer

## O=NN(CCCl)C(=O)NCCCl [BCNU, carmustine]
[2]; Carmustine 100 μM
  NQO1 and AKR1C protein expression: caused over-expression of NQO1 and AKR1C protein
[5]
  induction of AKR1C mRNA: 3 fold
A549 cells
  IC50: > 1500 µM
[6]
  AKR1C protein expression: massive induction
MCF7 cells; Homo sapiens, single agent
  IC50: 291 µM
[1]; 24 h, sub-lethal doses, no BSO
  effect on luciferase activity in AREc32 cells (in words): stronger inducing agent
[1]; [7]
  Type of modulation: Weak inducers
[1]; previously determined non-toxic concentration, 24 hours
  induction of ARE-driven luciferase activity: 4.5 fold

— patent US20120309087A1, “CANCER THERAPY” (University Court of The University of Dundee, priority 2006, published 2012)
